Laboratory results published in PMC12442081, “Combating Fuel Biocontamination: Tailored Antimicrobial Peptides and an Innovative Delivery Strategy” (ACS Applied Bio Materials, 2025).

Tests used:
HR+BL+DN coculture = assay type: cell-based, H. resinae + B. licheniformis + D. nishinomiyaensis
Experimental: (§1) All of the bacterial species were grown overnight at 37 °C in LB broth. 10^7 CFU/mL of cells were resuspended in fresh culture and grown until the mid log phase. , The bacterial cells were adjusted to a concentration of 5 × 10^5 CFU/mL to quantify the MIC. Equal volumes of the respective bacterial cultures were incubated with the serially diluted peptides in 96-well microtiter plate and incubated overnight at 37 °C in ambient air. Microorganisms without peptides were treated as the positive control, while uninoculated broth was used as the negative control. The MIC was taken as the lowest peptide concentration at which observable bacteria growth was inhibited, as measured by a microplate reader (Biotek Synergy H1 microplate reader). Experiments were performed in triplicates, and the mean MIC values were determined. A similar study was performed to understand the effect of peptide purity, i.e., ranging from 70 to 95%, on the peptide MIC. […]
(§2) fresh medium at equal proportions (v/v). Multiple combinations of microbial cocultures were prepared […]
(§3) Table S2. Schematic representation of the microbial cocultures grown in lab.
(§4) Bacterial clusters Fungal clusters
(§5) Gram-positive Gram-negative
(§6) Actinobacteria/DN Firmicutes/BL Proteobacteria/SP Ascomycota/HR […]
(§7) (b) The three upper panels […]
(§8) controlling the growth of microbial cocultures.

HR+DN+SP coculture = assay type: cell-based, H. resinae + D. nishinomiyaensis + S. paucimobilis
Experimental: as §1, §2, §3, §4, §5, §6, §7, §8

BL+DN coculture = assay type: cell-based, B. licheniformis + D. nishinomiyaensis
Experimental: as §1, §2, §3, §4, §5, §6, §7, §8

[1] = system: Roseomonas mucosa (RM) ATCC BAA-692; assay type: cell-based
Outline: (§9)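 Overnight LB cultures, 37 °C → mid-log → 5 × 10^5 CFU/mL; 1:1 with serially diluted peptides, o/n 37 °C, ambient air. MIC = lowest conc. inhibiting growth (plate reader). n = 3, mean reported.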

[2] = system: Bacillus licheniformis (BL) ATCC 14580; assay type: cell-based; conditions: ATCC 14580
Outline: as §9

[3] = system: Sphingomonas paucimobilis (SP); assay type: cell-based
Outline: as §9

SP+BL coculture = assay type: cell-based, S. paucimobilis + B. licheniformis
Experimental: as §1, §2, §3, §4, §5, §6, §7, §8

HR+SP coculture = assay type: cell-based, H. resinae + S. paucimobilis
Experimental: as §1, §2, §3, §4, §5, §6, §7, §8

HR+BL coculture = assay type: cell-based, H. resinae + B. licheniformis
Experimental: as §1, §2, §3, §4, §5, §6, §7, §8

B. licheniformis = assay type: cell-based, Bacillus licheniformis; conditions: 2 h
Experimental: (§10) The stability of the peptides against one Gram-positive (B. licheniformis) and Gram-negative (S. paucimobilis) bacteria was assessed by determining their MIC in chymotrypsin (protease), serum, and salt (NaCl). The experiments were adopted from Selvarajan et.al. The fold change in MIC with respect to the control was calculated and determined for each peptide against the microbial clusters.
(§11) To determine the susceptibility of the engineered peptides, which are abundant in Trp, to protease degradation, chymotrypsin, which cleaves Tyr, Phe, and Trp at physiological pH was chosen as the model protease. The protocol described by Wang et.al. (2014) was used with slight modifications. Peptides were incubated with chymotrypsin at a molar ratio of 40:1 (peptide: protease) in 10 mM PBS buffer (pH7.4) at 37 °C, and samples were analyzed after 2 h. The enzyme reaction was terminated by incubating the samples at 80 °C for 10 min. The incubated peptide mixtures were then serially diluted in 96-well plates to determine the MIC values of the microbial strains.
(§12) The stability of the peptides in the presence of the serum was tested using a 10% fetal bovine serum (heat inactivated).
(§13) We also studied the effects of 600 mM NaCl (in vitro) and natural seawater (NSW) on the MICs of the engineered peptides.

HR+DN coculture = assay type: cell-based, H. resinae + D. nishinomiyaensis
Experimental: as §1, §2, §3, §4, §5, §6, §7, §8

DN+SP coculture = assay type: cell-based, D. nishinomiyaensis + S. paucimobilis
Experimental: as §1, §2, §3, §4, §5, §6, §7, §8

S. paucimobilis = assay type: cell-based, Sphingomonas paucimobilis; conditions: 2 h
Experimental: as §10, §11, §12, §13

HR+BL+SP coculture = assay type: cell-based, H. resinae + B. licheniformis + S. paucimobilis
Experimental: as §1, §2, §3, §4, §5, §6, §7, §8

[4] = system: Macrococcus caseolyticus (MC) ATCC 13548; assay type: cell-based
Outline: as §9

[5] = system: Pseudomonas aeruginosa (PA) ATCC 39327; assay type: cell-based; conditions: ATCC 39327
Outline: as §9

[6] = system: Dermacoccus nishinomiyaensis (DN) ATCC 29093; assay type: cell-based
Outline: as §9

[7] = system: Micrococcus yunnanensis (MY) ATCC 12698; assay type: cell-based
Outline: as §9

[8] = system: Hormoconis resinae (HR) ATCC 20267; assay type: cell-based
Experimental: All of the bacterial species were grown overnight at 37 °C in LB broth. 10^7 CFU/mL of cells were resuspended in fresh culture and grown until the mid log phase. , The bacterial cells were adjusted to a concentration of 5 × 10^5 CFU/mL to quantify the MIC. Equal volumes of the respective bacterial cultures were incubated with the serially diluted peptides in 96-well microtiter plate and incubated overnight at 37 °C in ambient air. Microorganisms without peptides were treated as the positive control, while uninoculated broth was used as the negative control. The MIC was taken as the lowest peptide concentration at which observable bacteria growth was inhibited, as measured by a microplate reader (Biotek Synergy H1 microplate reader). Experiments were performed in triplicates, and the mean MIC values were determined. A similar study was performed to understand the effect of peptide purity, i.e., ranging from 70 to 95%, on the peptide MIC.
The same experimental procedures that were conducted for the antibacterial assay were used to determine the MIC of the peptides against the fungal strain, H. resinae.

[9] = system: Kocuria rosea (KR) ATCC 186; assay type: cell-based
Outline: as §9

| MIC (HR+BL+DN coculture) | MIC (HR+DN+SP coculture) | MIC (BL+DN coculture) | MIC [1] | MIC [2] | MIC [3] | MIC (SP+BL coculture) | MIC (HR+SP coculture) | MIC (HR+BL coculture) | MIC under different treatments (B. licheniformis) | MIC (HR+DN coculture) | MIC (DN+SP coculture) | MIC under different treatments (S. paucimobilis) | MIC (HR+BL+SP coculture) | MIC [4] | MIC [5] | MIC [6] | MIC [7] | MIC [8] | MIC [9] | Compound |
| --- | --- | --- | --- | --- | --- | --- | --- | --- | --- | --- | --- | --- | --- | --- | --- | --- | --- | --- | --- | --- |
| 7.5 µM | 15 µM | 30 µM | 1.9 µM | 1.9 µM | 1.9 µM | 1.87 µM | 0.9 µM | 0.9 µM | ≤ 4 µM | 0.9 µM | 3.7 µM | ≤ 4 µM | 3.7 µM |  |  |  |  |  |  | CC[C@H](C)[C@H](N)C(=O)N[C@@H](CC(C)C)C(=O)N1CCC[C@H]1C(=O)N[C@@H](Cc1c[nH]c2ccccc12)C(=O)N[C@@H](CCCCN)C(=O)N[C@@H](Cc1c[nH]c2ccccc12)C(=O)N1CCC[C@H]1C(=O)N[C@@H](Cc1c[nH]c2ccccc12)C(=O)N[C@@H](Cc1c[nH]c2ccccc12)C(=O)N1CCC[C@H]1C(=O)N[C@@H](Cc1c[nH]c2ccccc12)C(=O)N[C@@H](CCCCN)C(=O)N[C@@H](CCCNC(=N)N)C(=O)O [P3] |
| 1.87 µM | 3.7 µM | 60 µM |  | 1.9 µM | 1.9 µM | 120 µM | 30 µM | 3.7 µM | ≤ 4 µM | 1.87 µM | 30 µM | ≤ 4 µM | 1.87 µM | 0.9 µM | 1.9 µM | 0.9 µM | 0.9 µM |  |  | CC[C@H](C)[C@H](N)C(=O)N[C@@H](CC(C)C)C(=O)N1CCC[C@H]1C(=O)N[C@@H](Cc1ccccc1)C(=O)N[C@@H](CCCCN)C(=O)N[C@@H](Cc1c[nH]c2ccccc12)C(=O)N1CCC[C@H]1C(=O)N[C@@H](Cc1c[nH]c2ccccc12)C(=O)N[C@@H](Cc1c[nH]c2ccccc12)C(=O)N1CCC[C@H]1C(=O)N[C@@H](Cc1c[nH]c2ccccc12)C(=O)N[C@@H](CCCNC(=N)N)C(=O)N[C@@H](CCCNC(=N)N)C(=O)O [P11] |
| 0.9 µM | 7.5 µM | 1.87 µM |  | 0.9 µM | 0.9 µM | 7.5 µM | 7.5 µM | 7.5 µM | ≤ 4 µM | 0.9 µM | 15 µM | ≤ 4 µM | 0.9 µM | 1.9 µM | 3.8 µM | 0.9 µM | 0.9 µM | 3.8 µM | 1.9 µM | CC[C@H](C)[C@H](N)C(=O)N[C@@H](CC(C)C)C(=O)N[C@@H](Cc1ccc(O)cc1)C(=O)N[C@@H](Cc1c[nH]c2ccccc12)C(=O)N[C@@H](CCCCN)C(=O)N[C@@H](Cc1c[nH]c2ccccc12)C(=O)N1CCC[C@H]1C(=O)N[C@@H](Cc1c[nH]c2ccccc12)C(=O)N[C@@H](Cc1c[nH]c2ccccc12)C(=O)N1CCC[C@H]1C(=O)N[C@@H](Cc1c[nH]c2ccccc12)C(=O)N[C@@H](CCCNC(=N)N)C(=O)N[C@@H](CCCNC(=N)N)C(=O)O [P17] |
